Earlier results in patent US20150157647A1, “METHODS AND CO[…] TO ACUTE RESPIRATORY DISTRESS SYNDROME” (priority 2013, published 2015).

Key:
[1] = system: endothelial monolayers obtained from rat lung; conditions: interferes with function of adherence proteins
[2] = system: rodent brain contusion model; conditions: given 1 hour after the insult
[3] = system: animal models of preeclampsia

Structure (SMILES) | Effect on vascular permeability [1] | In vitro vascular action | Effect on tissue injury [2] | Effect on preeclampsia [3]
C[C@]12CC[C@H](O)C[C@@]1(O)CC[C@@H]1[C@@H]2CC[C@]2(C)[C@@H](c3ccc(=O)oc3)C[C@H]3O[C@]132 [MBG, marinobufagenin] | causes vascular “leak” | vasoconstrictor | – | –
C[C@]12CC[C@H](O)C[C@H]1CC[C@@H]1[C@@H]2CC[C@]2(C)[C@@H](c3ccc(=O)oc3)C[C@H]3O[C@]132 [RBG, epoxy-3β-hydroxy-5β-bufa-20,22-dienolide] | – | – | amelioration of tissue injury | prevents preeclampsia
